Data from the METLIN SMRT retention time set (Domingo-Almenara et al. 2019).

Experiment: gradient 5% acetonitrile 3 min, to 50% in 2 min, to 85% in 15 min, held 3 min, 100 µL/min
Settings: column: Zorbax Extend-C18 2.1 x 50 mm; eluents: water / acetonitrile, 0.1% formic acid
Method in brief: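 Data were gathered over 3 months by HPLC coupled to a quadrupole time-of-flight mass spectrometer, operated in positive and negative ionization mode. Mixtures of ~100 pure standards ran on a Zorbax Extend-C18 column (2.1 × 50 mm, 1.8 μm) at 100 μL/min, with water and acetonitrile each containing 0.1% formic acid and dead and dwell volumes of 40 μL and 900 μL. Retention time was read from adduct peaks picked by computer and checked manually.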

Row | Compound | RP-LC retention time
1 | CC(=O)OC[C@]12CCC(C)=C[C@H]1O[C@@H]1[C@H](O)[C@@H](OC(C)=O)[C@@]2(C)[C@@]12CO2 | 750 s
2 | COc1ccc(-c2nnc(SCC(=O)N3CCC(C)CC3)o2)cc1 | 914 s
3 | CCOC(=O)c1cc(S(=O)(=O)N2CCCC2C(=O)Nc2ccc(F)cc2C)cn1C (stereo not drawn) | 940 s
4 | Cc1csc(-c2cc(S(=O)(=O)NCCC3=CCCCC3)cn2CC(=O)N2CCCCC2)n1 | 1140 s
5 | CC1CCC2(CC1)NC(=O)N(CC(=O)NCc1ccc3c(c1)OCO3)C2=O (stereo not drawn) | 749 s
6 | O=C(CCCS(=O)(=O)c1ccc(F)cc1)Nc1nc2c(s1)COc1ccccc1-2 | 872 s
7 | COC1CCC12CCN(C(=O)c1ccoc1)CC2 (stereo not drawn) | 723 s
8 | Cc1ccsc1CCNC(=O)C1CCN(S(=O)(=O)c2ccc3c(c2)CCCC(=O)N3)CC1 | 760 s
9 | COc1ccc(-c2nsc(SCC(=O)Nc3cc(C)on3)n2)cc1 | 860 s
10 | Cc1ccc(C)c(NC(=O)C2CCN(S(=O)(=O)c3cc(-c4noc(C)n4)cs3)CC2)c1 | 953 s
11 | COc1ccc(C(=O)Nc2cnc(N3CCOCC3)nc2)cc1 | 618 s
12 | COc1cc(-c2nc3ccccn3c2Nc2ccc3c(c2)OCCO3)ccc1O | 629 s
13 | CCCOc1ccc(CN2C[C@@H]3C(=O)N(CCCN4CCCC4=O)C(=O)[C@@H]3C2)cc1 | 630 s
14 | CCS(=O)(=O)N1CC(=O)N(c2cc(C)ccc2C)C(C)(C(=O)NC2CCCCCC2)C1 (stereo not drawn) | 951 s
15 | CC(C)N1C(=O)C(C)(C(=O)Nc2cccc(F)c2)Oc2cccnc21 (stereo not drawn) | 1020 s
16 | CCOc1ccc(-c2ccc(=O)n(CCc3nc(-c4cc(OC)cc(OC)c4)no3)n2)cc1 | 1020 s
17 | CCN1C(=O)COc2ccc(-c3noc(COc4ccc(Cl)cc4)n3)cc21 | 1110 s
18 | CN(C)C(=O)c1cn(C2CN(C(=O)Nc3ccccc3F)C2)nn1 | 629 s
19 | CC(C)(C)NC(=O)c1cc2c(s1)N(CC1CC1)CCCC2 | 1200 s
20 | Cc1nnc(-c2c(S(=O)(=O)NC3CCCCCC3)c(C)n(C)c2C)o1 | 900 s
21 | COc1cccc(-c2noc(Cc3nnc(-c4cccc(C)c4)o3)n2)c1OC | 961 s
22 | COc1ccc(N2C(=O)CC(c3ccc(OC)c(OC)c3)CC2=O)cc1 | 780 s

Row | Compound | RP-LC retention time
23 | COc1ccc(C(C)NC(=O)c2cn3c(n2)COCC3)cc1OC (stereo not drawn) | 608 s
24 | CC(C)CN1CCn2cc(S(=O)(=O)NCc3ccc(F)c(Cl)c3)cc2C1=O | 855 s
25 | Cc1cccc(C)c1NC(=O)Cn1cnc2nc(N3CCCC(C(=O)NC4CC4)C3)sc2c1=O (stereo not drawn) | 678 s
26 | O=C(c1ccsc1)N1CCC2(CC1)CC(N1CCOCC1)CCO2 (stereo not drawn) | 557 s
27 | CCc1nnc(-c2ccc3ccn(CC(=O)NCCc4ccc(OC)c(OC)c4)c3c2)o1 | 760 s
28 | CN1C(=O)C(C)(C(=O)Nc2ccccc2F)Oc2cccnc21 (stereo not drawn) | 780 s
29 | COc1cc(OC)cc(-c2nc(-c3cn(-c4ccc(F)cc4)nn3)no2)c1 | 809 s
30 | CCn1cc(-c2nc(CC(=O)NCc3ccc4c(c3)OCO4)cs2)c2cccnc21 | 835 s
31 | COc1ccc(-c2nc3cnccn3c2Nc2ccc(C)cc2C)cc1 | 971 s
32 | O=S(=O)(c1cc(-c2noc(C3CCCC3)n2)cs1)N1CCCC1 | 1110 s
33 | CC(=O)N1c2ccc(S(=O)(=O)N3CCCC3)cc2CC1C(=O)NCCC(C)C (stereo not drawn) | 806 s
34 | CCCNC(=O)C1CCCN(c2ccc(SCC(=O)Nc3ccc(Cl)cc3F)nn2)C1 (stereo not drawn) | 733 s
35 | COc1ccc(NC(=O)C2CCN(c3cc(N4CCCCC4)ncn3)CC2)c(OC)c1 | 694 s
36 | CC1C(=O)NCCN1C(=O)CCSc1ccc(Cl)cc1 (stereo not drawn) | 674 s
37 | Cc1nc(C2CCOCC2)n(C2CCN(S(=O)(=O)c3ccc(F)cc3F)C2)n1 (stereo not drawn) | 712 s
38 | COC(=O)c1cnc2nc(C)ccc2c1NCc1cccc(Cl)c1 | 733 s
39 | O=C(NCc1ccccc1)C1(CCO)CC12CCOCC2 (stereo not drawn) | 627 s
40 | Clc1ccc(Cl)c(-c2ccc(CNCc3ccncc3)o2)c1 | 664 s
41 | Cc1cc(C)cc(NS(=O)(=O)c2cc3c4c(c2)CCC(=O)N4CCC3)c1 | 874 s
42 | Cc1ccc(-c2ccc(=O)n(Cc3nc(-c4ccc(F)cc4)no3)n2)cc1 | 1090 s
43 | COc1cccc(C(=O)Nc2ccc(CC(=O)NCC(F)(F)F)cc2)c1OC | 764 s

The next lines start with the values.

Row | RP-LC retention time | Compound
44 | 656 s | O=C(NCCc1cccs1)c1cccc(N2CCNC(c3ccccc3)C2)n1 (stereo not drawn)
45 | 883 s | Cc1cc(C)cc(C(=O)NC2CCN(c3cc(-c4ccc(Cl)cc4)[nH]n3)C2)c1 (stereo not drawn)
46 | 1070 s | Fc1cccc(-n2cc(-c3noc(-c4ccccc4)n3)nn2)c1
47 | 711 s | O=C(NCc1cccnc1)C1CCCN(C(=O)c2cc3ccsc3n2Cc2cccc(Cl)c2)C1 (stereo not drawn)
48 | 598 s | CCCOc1ccc(S(=O)(=O)NCC2CCN(C(=O)c3ccccc3F)CC2)cc1C
49 | 627 s | Cc1cc(N2CCN(C(=O)c3cccc(C(F)(F)F)c3)CC2)nc2nncn12
50 | 764 s | COc1ccc(CNC(=O)C2=C3CCCN3c3ccc(F)cc3S2(=O)=O)cc1OC
51 | 849 s | O=C(Nc1ccc(F)cc1)C1CCCN(c2ccc(=O)n(-c3ccc(F)cc3)n2)C1 (stereo not drawn)
52 | 1000 s | O=C(c1ccc(Br)o1)N1CCC(c2cnn(-c3cccc(F)c3)c2)CC1
53 | 783 s | COc1ccc(S(=O)(=O)N2CCC(n3cnnc3-c3ccccc3)CC2)cc1
54 | 857 s | COc1cccc(-c2nc(N3CCSCC3)ncc2C(=O)O)c1
55 | 685 s | Cc1oc(-c2[nH]ncc2C(=O)N2CCCC2)cc1S(=O)(=O)Nc1ccccc1
56 | 880 s | O=C(Nc1ccccc1F)C1CCCN(S(=O)(=O)c2c[nH]c(C(=O)N3CCCCCC3)c2)C1 (stereo not drawn)
57 | 726 s | CN1c2ccc(F)cc2C(=O)NC12CCN(C(=O)c1ccccc1)CC2
58 | 707 s | CCCNC(=O)N(C1CCOCC1)C1CCN(C(=O)c2ccc3ccccc3n2)CC1
59 | 975 s | Cc1ccc(S(=O)(=O)NCC(=O)Nc2ccc3c(c2)Cc2ccccc2-3)cc1
60 | 1000 s | C=CCN1C(=O)COc2ccc(-c3nc(NC(=O)Cc4ccccc4)sc3C)cc21
61 | 894 s | CCc1ccc(C(=O)N2CCCN(C3=NS(=O)(=O)C(c4ccccc4)=C3C)CC2)cc1
62 | 706 s | CN(C)C(=O)c1cccc2c1CCN2C(=O)c1ccccc1
63 | 607 s | Cn1c(CN2CCN(C(=O)c3ccco3)CC2)nc2cc(NC(=O)c3ccco3)ccc21
64 | 904 s | Cn1c(=O)c(N2CCC(NC(=O)Nc3ccccc3Cl)CC2)nc2cccnc21
65 | 1120 s | CC(C)c1nc(-c2ccc(OC3CCN(C(=O)C4(c5ccccc5)CC4)C3)cc2)no1 (stereo not drawn)
66 | 627 s | CCc1nnc(NC(=O)c2ccc(N3C(=O)CCC3=O)cc2)s1

Row | RP-LC retention time | Compound
67 | 1040 s | Cc1ccc(C)c(N2CCN(C(=O)Cn3nc(C(=O)N4CCCC4)c4ccccc43)CC2)c1
68 | 626 s | CN(C)CCNC(=O)c1nc2ccccn2c1-c1ccc(Cl)cc1
69 | 591 s | CCn1c(-c2ccccc2)cc(C(N)=O)c1C
70 | 955 s | CN(C)S(=O)(=O)c1ccc2c(c1)N(CC(=O)NCCCc1ccccc1)C(=O)C1CCCCN21 (stereo not drawn)
71 | 748 s | O=C(O)c1ccc2c(c1)N(C(=O)c1ccc(F)cc1)CC2
72 | 646 s | CC(=O)Nc1ccc2c(c1)CN(C(=O)c1ccccc1F)C(C(=O)N1CCCC1)C2 (stereo not drawn)
73 | 815 s | Cc1cnnn1-c1ccc(C(=O)Nc2cc(Cl)ccc2Cl)cc1
74 | 676 s | Cc1[nH]c(C)c(S(=O)(=O)N2CCC(C(=O)Nc3ccc(F)cc3F)CC2)c1C(=O)N1CCCC1
75 | 565 s | CCOc1ccc(C(=O)N2CCc3nc[nH]c3C2)cc1
76 | 983 s | CC(C)Cc1ccc(S(=O)(=O)N2C[C@@H](F)C[C@H]2C(=O)N2CCCCC2)cc1
77 | 796 s | CCOC(=O)C1CCCN(c2c(NCC3COc4ccccc4O3)c(=O)c2=O)C1 (stereo not drawn)
78 | 860 s | CC(=O)c1cccc(NC(=O)N(c2ccccc2)c2ccccc2)c1
79 | 662 s | O=C(NCCn1nnc2cc(C(=O)N3CCCC3)ccc21)Nc1ccc(F)cc1
80 | 839 s | COc1ccc(Cc2nc(-c3ccc4c(c3)nnn4CCC(=O)N3CCCC3)no2)cc1
81 | 1020 s | COc1ccc(-c2ncc3c(n2)CCN(C(=O)Nc2ccc(C)cc2Cl)C3)cc1
82 | 967 s | CCCn1c(=O)c(-c2ccc(C(=O)NCC(C)C)cc2)nc2cccnc21
83 | 960 s | CN1CCCN(C(=O)COc2ccc(Cl)cc2)c2ccccc21
84 | 893 s | CCn1nccc1C(=O)Nc1c(-c2ccccc2)nc2sc(N3CCCCC3)nn12
85 | 963 s | Cc1nc(-c2ccc(-c3noc(C(C)NC(=O)c4ccccc4)n3)cc2)cs1 (stereo not drawn)
86 | 747 s | Cc1ccc(Cn2c(CN3CCC(C(=O)NC(C)C)CC3)cc3ccccc32)cc1
87 | 720 s | Cc1ccc(-c2cn3cccnc3n2)cc1NC(=O)CC1CCCCC1
88 | 580 s | COc1cccc(CN2CCc3nn(Cc4ccccc4)c(=O)n3CC2)n1
